Measured values: the NIST ThermoML archive (doi:10.1021/je800579j)

Experiment: refractive index (Na D-line) (dimensionless); xn = mol fraction of the nth substance listed
Conditions: Liquid, Standard Abbe refractometry

Cc1ccc(C)cc1 [1,4-dimethylbenzene] + C1COCCO1
refractive index
Conditions	288.15 K	293.15 K	298.15 K	303.15 K	308.15 K	313.15 K	318.15 K
x2 = 0	1.4985	1.4959	1.4933	1.4907	1.4881	1.4855	1.483
x2 = 0.0716	1.4937	1.4911	1.4884	1.4858	1.4831	1.4805	1.4778
x2 = 0.1445	1.4887	1.4861	1.4834	1.4808	1.4781	1.4754	1.4727
x2 = 0.2132	1.4839	1.4813	1.4786	1.476	1.4733	1.4706	1.468
x2 = 0.2871	1.4787	1.4761	1.4734	1.4708	1.4681	1.4655	1.4628
x2 = 0.3582	1.4736	1.471	1.4684	1.4658	1.4632	1.4606	1.458
x2 = 0.4358	1.468	1.4655	1.4629	1.4604	1.4578	1.4552	1.4526
x2 = 0.5042	1.4629	1.4604	1.4579	1.4554	1.4529	1.4503	1.4478
x2 = 0.5846	1.4569	1.4544	1.452	1.4495	1.447	1.4445	1.442
x2 = 0.6543	1.4516	1.4492	1.4467	1.4443	1.4418	1.4394	1.4369
x2 = 0.7249	1.4462	1.4438	1.4414	1.439	1.4365	1.4341	1.4316
x2 = 0.7923	1.441	1.4386	1.4362	1.4338	1.4314	1.429	1.4266
x2 = 0.8623	1.4355	1.4332	1.4309	1.4286	1.4262	1.4238	1.4214
x2 = 0.9311	1.4301	1.4279	1.4256	1.4234	1.4211	1.4188	1.4165

Cc1ccccc1C [1,2-dimethylbenzene] + C1COCCO1
refractive index
Conditions	288.15 K	293.15 K	298.15 K	303.15 K	308.15 K	313.15 K	318.15 K
x2 = 0	1.5083	1.5055	1.5029	1.5002	1.4975	1.4948	1.4921
x2 = 0.0672	1.5029	1.5001	1.4974	1.4946	1.4918	1.489	1.4862
x2 = 0.1391	1.4972	1.4944	1.4917	1.4889	1.4861	1.4833	1.4804
x2 = 0.2103	1.4914	1.4886	1.4858	1.4831	1.4803	1.4775	1.4746
x2 = 0.2853	1.4853	1.4825	1.4798	1.4771	1.4743	1.4715	1.4687
x2 = 0.3543	1.4796	1.4769	1.4742	1.4714	1.4687	1.4659	1.4632
x2 = 0.4293	1.4734	1.4707	1.4681	1.4654	1.4627	1.46	1.4573
x2 = 0.5092	1.4667	1.4641	1.4615	1.4589	1.4562	1.4535	1.4509
x2 = 0.581	1.4606	1.458	1.4554	1.4528	1.4502	1.4476	1.445
x2 = 0.6518	1.4545	1.452	1.4495	1.4469	1.4444	1.4418	1.4392
x2 = 0.7248	1.4482	1.4457	1.4433	1.4408	1.4383	1.4357	1.4332
x2 = 0.7888	1.4427	1.4402	1.4378	1.4354	1.4329	1.4304	1.4279
x2 = 0.8595	1.4365	1.4342	1.4318	1.4295	1.4271	1.4246	1.4221
x2 = 0.9298	1.4305	1.4282	1.4259	1.4236	1.4213	1.419	1.4166
